According to a melting point compilation (Tetko et al.; mined from patent text by program, amines drawn as free bases though some values may be those of a salt):

Row | SMILES | melting point
1 | O=C(O)CC1c2ccccc2C=Cc2ccccc21 | 167 to 168 °C
2 | O=C1CC(c2ccc(OCc3ccccc3)cc2)=Nc2ccc(N3CCCC3)cc21 | 330 to 332 °C
3 | C#Cc1cnn2c(C(F)F)cc(-c3cccc(C(F)(F)F)c3)nc12 | 149 °C
4 | O=C1OC2(CCN(CCC(O)c3ccccc3)CC2)c2ccccc21 (stereo not given) | 144 to 146 °C
5 | Cn1c(=O)n(C)c2cc(C(=O)CSCCC(=O)O)c(Cl)cc21 | 148 to 150 °C
6 | COc1cc(Nc2c(C#N)cnc3cc4cc(OC)c(OCCCl)cc4cc23)c(Cl)cc1F | 193 to 204 °C
7 | Cn1nc2c(oc3cc(Cl)ccc32)c1N | 210 to 211 °C
8 | ClCc1coc(-c2ccc(Cl)s2)n1 | 90 to 91 °C
9 | c1ccc(OCCSCc2nnc(-c3ccc(OCCCN4CCSCC4)cc3)o2)cc1 | 85 °C
10 | CC(=O)Nc1nc(CCc2ccc(N)cc2)c(C(=O)Nc2ccccc2)s1 | 104 to 105 °C
11 | CC(C)c1nn(-c2ccccn2)c(-c2ccc(F)cc2)c1/C=C/CO | 106 to 109 °C
12 | Cc1cc(C2=NOC(c3cc(Cl)cc(Cl)c3)(C(F)(F)F)C2)ccc1Br (stereo not given) | 105 to 108 °C
13 | COc1ccc2nc3c(C)ccc([N+](=O)[O-])c3c(Cl)c2c1 | 227 to 228 °C
14 | COC(=O)C(=O)N(N=C(C#N)c1ccc(C#N)cc1)c1c(Cl)cc(C(F)(F)F)cc1Cl | 194 to 195 °C
15 | COc1ccc(-c2n[nH]c(N=CN(C)C)c2C#N)cc1 | 169 to 171 °C
16 | C(=Cc1ccc(N(c2ccccc2)c2ccccc2)cc1)c1ccc(N(c2ccccc2)c2ccccc2)cc1 | 247 to 259 °C
17 | Cc1cc(C(C)N(O)C(N)=O)c(C)o1 (stereo not given) | 145 to 146 °C
18 | O=C1CC(c2ccccc2OCc2ccccc2)=Nc2ccc(N3CCCC3)cc21 | 293 to 295 °C
19 | O=C1NC(=C2CCC2)Sc2ccccc21 | 147 to 149 °C
20 | N#Cc1cnc2c(sc3ccccc32)c1Oc1ccc(Cl)cc1F | 174 to 175 °C
21 | CNC(=O)n1sc(OC(C)C)nc1=O | 95 °C
22 | Fc1ccccc1COC1COC(CCl)OC1 (stereo not given) | 60 to 62 °C
23 | O=C(O)c1c(O)cccc1-c1ccccc1 | 143 to 146 °C

Row | SMILES | melting point
24 | Cc1ccn2c(Br)c(CCc3ccc4nc(N)sc4c3)nc2c1 | 233 to 236 °C
25 | FC(F)(F)C1(c2cc(Cl)cc(Cl)c2)CC(c2ccc(CCl)cc2)=NO1 (stereo not given) | 98 to 100 °C
26 | Nc1nc(NC2CCCCC2)nc(NC2CCCCC2)n1 | 153 °C
27 | CN1CCCC1=NC(=O)Nc1ccc(Cl)cc1 | 138 to 141 °C
28 | O=c1c(Cc2cccnc2)cn2c3ccccc3c3cc(OCCCO)cc1c32 | 72.5 to 78.6 °C
29 | COc1ccc(C(=O)Nc2c(-c3cc(Cl)ccc3O)c3cc(C(F)(F)F)ccc3[nH]c2=O)cc1 | 285 to 287 °C
30 | CCS(=O)(=O)Nc1cccc(COc2cc(F)cc(Nc3ccc(I)cc3F)c2C(N)=O)c1 | 170 °C
31 | Cc1c(/C=N/OCCCOc2ccc(CC(=O)O)cc2)c2ccccc2n1C | 106 to 108 °C
32 | CCN(CC)c1cccc2nc(C(O)c3ccc(Cl)cc3Cl)n(CCO)c12 (stereo not given) | 177 to 179 °C
33 | CC1SC(=O)NN=C1c1ccc2c(c1)C(C)(C)C(=O)N2C(=O)c1ccccc1 (stereo not given) | 200 °C
34 | O=C1N(Cc2ccc3ccccc3c2)c2ccccc2N=C2CCCC12Cc1ccc2ccccc2c1 (stereo not given) | 191 to 193 °C
35 | CCCN(CCC)C(=O)CN(C(=O)CN1C(=O)c2ccccc2C1=O)c1ccccc1 | 130 °C
36 | CCCN(CCC)c1ccc(S(=O)(=O)N2CCCCC2=O)cc1 | 105 to 108 °C
37 | NS(=O)(=O)c1cccc2c1C(Cl)=CC2 | 100 to 101 °C
38 | Cc1ncsc1C(C)(O)c1ccco1 (stereo not given) | 127 to 128 °C
39 | CC(C)c1cccc(C(C)C)c1NC(=O)N(Cc1ccc(O)cc1)CC1(c2c[nH]cn2)CCCCC1 | 185 to 188 °C
40 | CCC(=O)C(Oc1cc(C#N)cc(C#N)c1)C(=O)OC (stereo not given) | 93 to 95 °C
41 | CC(C)(C)C(=O)Nc1cccc(-c2ccnc3c(C(=O)c4ccccc4)cnn23)c1 | 160 to 161 °C
42 | CCSCCCN(C)c1c(S(=O)(=O)C(F)(F)F)c(C#N)nn1-c1c(Cl)cc(C(F)(F)F)cc1Cl | 89 °C
43 | CCCCn1nc(C(F)(F)CC)nc1Cc1ccc(-c2ccccc2-c2nnn[nH]2)nc1 | 98 to 100 °C
44 | O=C1NC2CCC1C(O)C2 (stereo not given) | 115 to 120 °C
45 | CCCCCCSc1cc(SCCCCCC)c2ccc3c(SCCCCCC)cc(SCCCCCC)c4ccc1c2c43 | 92 °C

Other lines, results leading:

Row | melting point | SMILES
46 | 128 to 129 °C | COc1cc2ncnc(N3CCc4ccc(C(C)C)cc43)c2cc1OC
47 | 194 to 195 °C | Nc1cc(C(=O)O)cc(S(N)(=O)=O)c1NCCc1ccccc1
48 | 81 to 83 °C | O=C1C(Cl)=C(NC2CCCC2)C(=O)c2ccccc21
49 | 96 to 97 °C | O=C(NS(=O)(=O)NCC1CCCO1)OCc1ccccc1 (stereo not given)
50 | 145 to 146 °C | CC1CC(=O)NN=C1c1ccc(N2CCN(CCCCN)CC2)c([N+](=O)[O-])c1 (stereo not given)
51 | 126 °C | O=C(OCC1=CCN(Cc2c[nH]c3cccnc23)CC1)c1ccccc1
52 | 105 to 107 °C | COc1ccc2c(c1)C(C(Cl)(Cl)Cl)OC(C(Cl)(Cl)Cl)O2 (stereo not given)
53 | 93.5 to 95 °C | O=[N+]([O-])c1ccc(NS(=O)(=O)C(F)(F)F)c(OC2CCCCC2)c1
54 | 137 to 138 °C | CON(C)C(=O)c1nc(C(C)(C)C)c(O)c(C(C)(C)C)n1
55 | 97 to 98 °C | COC1C(OC(=O)c2ccccc2)C=C(C)C(=O)CC1(C)C (stereo not given)
56 | 198 to 199 °C | COP(=O)(Cc1ccc(NC(=O)[C@H]2Cc3cc4c(cc3C(=O)[C@H](C)S2)OCO4)cc1)OC
57 | 88 to 89 °C | COC(=O)CCCc1cc2nc(Cl)ccc2n1S(=O)(=O)c1ccc(C)cc1Cl
58 | 123 to 124 °C | Cc1c(C)c2c(c(C)c1N)C(c1ccc(C(C)C)cc1)C1(CCN(C)CC1)O2 (stereo not given)
59 | 200 °C | CC(C)N1C(=O)C(C(N)=O)N(c2cc(Cl)cc(Cl)c2)C1=O (stereo not given)
60 | 130 to 132 °C | COc1ccc2c(cccc2[C@H]2CO[C@H](CCCNC(=O)OCc3nccn3C(c3ccccc3)(c3ccccc3)c3ccccc3)OC2)c1
61 | 153 to 160 °C | CC(C)(C)OC(=O)NC[C@H]1CN(c2ccc3c(c2)CC(C(C)(C)C)N3)C(=O)O1 (stereo not given in full)
62 | 135 to 145 °C | CS(=O)c1n[nH]c(-c2cc(C(C)(C)C)c(O)c(C(C)(C)C)c2)n1 (stereo not given)
63 | 187 to 189 °C | O=C1c2ccc(OC3CC3)cc2CCC1CN1CCC(O)(c2ccccc2)CC1 (stereo not given)
64 | 169 to 172 °C | CCc1ccccc1Cn1cc(-c2cn(C3CC(O)C(CO)O3)c(=O)[nH]c2=O)nn1 (stereo not given)
65 | 144 to 145 °C | Cc1ccc(-n2nc(C(F)(F)F)cc2-c2ccc(S(C)(=O)=O)c(F)c2)cc1Cl
66 | 112 to 115 °C | CCOC(=O)C(CC)=C(C)NC(=O)Nc1cc(C(=O)OC(C)C)c(Cl)cc1F
67 | > 300 °C | CN1CCN(c2c(F)cc3c(=O)c(C(=O)O)cn(-c4ccc(O)cc4)c3c2F)CC1
68 | 155 to 157 °C | CN1CCC(c2cc3cc(C4(O)CCCCC4)ccc3o2)CC1
69 | 308 to 309 °C | COC(=O)c1ccc(-c2nc3ccc(C(=O)O)cc3[nH]2)cc1
70 | 201 to 206 °C | Cn1cc(C(=O)NCCCN)c(Nc2ccc(I)cc2F)cc1=O
